# Measured values from PubChem BioAssay AID330 (DTP/NCI, 2004).
# Several values for one entry are separate records, joined by “and”; a condition that tells them apart may be missing. Equal values may be shown once. Toxic doses and inconclusive results are not listed.
# System: P388 leukemia ip, CD2F1 mice, survival T/C
# Test: NCI In Vivo Anticancer Drug Screen. Data for tumor model P388 Leukemia (intraperitoneal) in CD2F1 (CDF1) mice
# Details: endpoint: median survival time, higher = longer survival
# Procedure, shortened: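 Mice carrying the transplanted tumor received test compound or vehicle. Survival was recorded in each group, and the value is the treated-group measurement divided by that of the vehicle-treated control group.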
# [1] = dose: 50.0 mg/kg/injection, schedule: Q01DX009 (ip), vehicle: Klucel (hydroxypropylcellulose) (HPC)
# [2] = dose: 100.0 mg/kg/injection, schedule: Q01DX009 (ip), vehicle: Klucel (hydroxypropylcellulose) (HPC)
# [3] = dose: 200.0 mg/kg/injection, schedule: Q01DX009 (ip), vehicle: Klucel (hydroxypropylcellulose) (HPC)
# [4] = dose: 60.0 mg/kg/injection, schedule: Q01DX005 (ip), vehicle: saline with Tween-80
# [5] = dose: 120.0 mg/kg/injection, schedule: Q01DX005 (ip), vehicle: saline with Tween-80
# [6] = dose: 240.0 mg/kg/injection, schedule: Q01DX005 (ip), vehicle: saline with Tween-80
smiles,measurement,setting,value
C/C=C/N=NNc1ccc(OC)cc1,T/C,"dose: 100.0 mg/kg/injection, schedule: Q04DX003 (ip), vehicle: saline + Tween-80 + alcohol",105 % of control
same,T/C,"dose: 200.0 mg/kg/injection, schedule: Q04DX003 (ip), vehicle: saline + Tween-80 + alcohol",99 % of control
C1=C(c2ccccc2)Oc2ccccc2[P+]1(c1ccccc1)c1ccccc1,T/C,"dose: 0.78 mg/kg/injection, schedule: Q01DX005 (ip), vehicle: Klucel (hydroxypropylcellulose) (HPC)",100 % of control
same,T/C,"dose: 1.56 mg/kg/injection, schedule: Q01DX005 (ip), vehicle: Klucel (hydroxypropylcellulose) (HPC)",109 % of control
same,T/C,"dose: 3.12 mg/kg/injection, schedule: Q01DX005 (ip), vehicle: Klucel (hydroxypropylcellulose) (HPC)",99 % of control
CC(=O)C1=C(O)C2(C)c3c(O)c(C)c(O)c(C(C)=O)c3OC2CC1=O (stereo not given),T/C,"dose: 6.25 mg/kg/injection, schedule: Q01DX009 (ip), vehicle: gum acacia",100 % of control and 106 % of control
same,T/C,"dose: 12.5 mg/kg/injection, schedule: Q01DX009 (ip), vehicle: gum acacia",103 % of control and 108 % of control
same,T/C,"dose: 25.0 mg/kg/injection, schedule: Q01DX009 (ip), vehicle: gum acacia",108 % of control and 110 % of control
same,T/C,"dose: 50.0 mg/kg/injection, schedule: Q01DX009 (ip), vehicle: gum acacia",108 % of control and 110 % of control
CC(=O)C1CC(CC(=O)O)C1(C)C (stereo not given),T/C,"dose: 25.0 mg/kg/injection, schedule: Q01DX009 (ip), vehicle: Klucel (hydroxypropylcellulose) (HPC)",96 % of control
same,T/C,[1],108 % of control and 92 % of control
same,T/C,[2],96 % of control and 97 % of control
same,T/C,[3],99 % of control and 100 % of control
same,T/C,"dose: 400.0 mg/kg/injection, schedule: Q01DX009 (ip), vehicle: Klucel (hydroxypropylcellulose) (HPC)",100 % of control
CC[PH+](CC)CC[S-].CC[PH+](CC)CC[S-].[Au+].[Au+],T/C,"dose: 2.5 mg/kg/injection, schedule: Q01DX009 (ip), vehicle: Klucel (hydroxypropylcellulose) (HPC)",109 % of control
same,T/C,"dose: 5.0 mg/kg/injection, schedule: Q01DX009 (ip), vehicle: Klucel (hydroxypropylcellulose) (HPC)",114 % of control and 115 % of control
same,T/C,"dose: 20.0 mg/kg/injection, schedule: Q01DX009 (ip), vehicle: Klucel (hydroxypropylcellulose) (HPC)",153 % of control
same,T/C,"dose: 40.0 mg/kg/injection, schedule: Q01DX009 (ip), vehicle: Klucel (hydroxypropylcellulose) (HPC)",87 % of control
CSc1nc2c(nnn2C2OCC(O)C(O)C2O)c(=O)[nH]1 (stereo not given),T/C,[4],93 % of control
same,T/C,[5],93 % of control
same,T/C,[6],86 % of control
CCCC(=O)O.CCCC(=O)O.CCCC(=O)O.CCCC(=O)O.[Rh].[Rh],T/C,"dose: 0.12 mg/kg/injection, schedule: Q01DX009 (ip), vehicle: saline + alcohol",116 % of control
same,T/C,"dose: 0.25 mg/kg/injection, schedule: Q01DX009 (ip), vehicle: saline + alcohol",106 % of control and 122 % of control
same,T/C,"dose: 15.63 micrograms/kg/injection, schedule: Q08HX018 (ip), vehicle: saline + alcohol",118 % of control
same,T/C,"dose: 31.25 micrograms/kg/injection, schedule: Q01DX009 (ip), vehicle: saline + alcohol",107 % of control
same,T/C,"dose: 31.25 micrograms/kg/injection, schedule: Q08HX018 (ip), vehicle: saline + alcohol",118 % of control
same,T/C,"dose: 62.5 micrograms/kg/injection, schedule: Q08HX018 (ip), vehicle: saline + alcohol",101 % of control
same,T/C,"dose: 125.0 micrograms/kg/injection, schedule: Q01DX009 (ip), vehicle: saline + alcohol",114 % of control
same,T/C,"dose: 125.0 micrograms/kg/injection, schedule: Q08HX018 (ip), vehicle: saline + alcohol",113 % of control
same,T/C,"dose: 250.0 micrograms/kg/injection, schedule: Q01DX009 (ip), vehicle: saline + alcohol",115 % of control
same,T/C,"dose: 250.0 micrograms/kg/injection, schedule: Q08HX018 (ip), vehicle: saline + alcohol",114 % of control
same,T/C,"dose: 500.0 micrograms/kg/injection, schedule: Q01DX009 (ip), vehicle: saline + alcohol",122 % of control
COc1ccc(N2CCN(/C=C3\Cc4ccc(F)cc4C3=O)CC2)cc1,T/C,"dose: 100.0 mg/kg/injection, schedule: Q04DX002 (ip), vehicle: Klucel (hydroxypropylcellulose) (HPC)",103 % of control
same,T/C,"dose: 200.0 mg/kg/injection, schedule: Q04DX002 (ip), vehicle: Klucel (hydroxypropylcellulose) (HPC)",99 % of control
same,T/C,"dose: 400.0 mg/kg/injection, schedule: Q04DX002 (ip), vehicle: Klucel (hydroxypropylcellulose) (HPC)",95 % of control
C/C=C/C=C/C(=O)c1ccc(OC)cc1O,T/C,"dose: 50.0 mg/kg/injection, schedule: Q01DX009 (ip), vehicle: saline with Tween-80",103 % of control and 105 % of control
same,T/C,"dose: 100.0 mg/kg/injection, schedule: Q01DX009 (ip), vehicle: saline with Tween-80",101 % of control and 103 % of control
same,T/C,"dose: 200.0 mg/kg/injection, schedule: Q01DX009 (ip), vehicle: saline with Tween-80",101 % of control and 106 % of control
same,T/C,"dose: 400.0 mg/kg/injection, schedule: Q01DX009 (ip), vehicle: saline with Tween-80",106 % of control and 108 % of control
O=C(CNC(=O)OCc1ccccc1)NCC1OC(n2cnc3c(=O)[nH]cnc32)C(O)C1O (stereo not given),T/C,"dose: 50.0 mg/kg/injection, schedule: Q04DX003 (ip), vehicle: saline with Tween-80",102 % of control
same,T/C,"dose: 100.0 mg/kg/injection, schedule: Q04DX003 (ip), vehicle: saline with Tween-80",94 % of control
same,T/C,"dose: 200.0 mg/kg/injection, schedule: Q04DX003 (ip), vehicle: saline with Tween-80",98 % of control
CC1=C(C(=O)NCc2ccccc2)C(c2cccc([N+](=O)[O-])c2)C(C(=O)NCc2ccccc2)=C(C)N1,T/C,"dose: 15.0 mg/kg/injection, schedule: Q01DX005 (ip), vehicle: saline with Tween-80",107 % of control
same,T/C,"dose: 30.0 mg/kg/injection, schedule: Q01DX005 (ip), vehicle: saline with Tween-80",90 % of control
same,T/C,[4],87 % of control
CCOC(=O)/C=C1/C(=O)OC2C1OC1OC(C)(C)OC12 (stereo not given),T/C,"dose: 3.75 mg/kg/injection, schedule: Q01DX005 (ip), vehicle: saline with Tween-80",98 % of control
same,T/C,"dose: 7.5 mg/kg/injection, schedule: Q01DX005 (ip), vehicle: saline with Tween-80",97 % of control
CN(N=O)C1=NC2(CCCCC2)P(=O)(NNc2ncccn2)O1 (stereo not given),T/C,"dose: 60.0 mg/kg/injection, schedule: Q01DX005 (ip), vehicle: saline",101 % of control
same,T/C,"dose: 120.0 mg/kg/injection, schedule: Q01DX005 (ip), vehicle: saline",102 % of control
COc1cccc(C2c3cc4c(cc3OC(N3CCCC3)C2C)OCO4)c1O (stereo not given),T/C,[4],103 % of control
same,T/C,[5],90 % of control
same,T/C,[6],88 % of control
CCOC(=O)Cn1nc(-c2ccccc2)c(-c2ccccc2)c(C#N)c1=O,T/C,"dose: 25.0 mg/kg/injection, schedule: Q04DX002 (ip), vehicle: distilled water + Tween-80",95 % of control
same,T/C,"dose: 50.0 mg/kg/injection, schedule: Q04DX002 (ip), vehicle: distilled water + Tween-80",107 % of control
same,T/C,"dose: 100.0 mg/kg/injection, schedule: Q04DX002 (ip), vehicle: distilled water + Tween-80",98 % of control
same,T/C,"dose: 200.0 mg/kg/injection, schedule: Q04DX002 (ip), vehicle: distilled water + Tween-80",92 % of control
Cc1c2cc[n+](CCN3CCCCC3)cc2c(C)c2c1[nH]c1ccc(O)cc12,T/C,"dose: 1.56 mg/kg/injection, schedule: Q04DX003 (ip), vehicle: suspension in saline",152 % of control
same,T/C,"dose: 3.12 mg/kg/injection, schedule: Q04DX003 (ip), vehicle: suspension in saline",152 % of control
same,T/C,"dose: 6.25 mg/kg/injection, schedule: Q04DX003 (ip), vehicle: saline",178 % of control and 201 % of control
same,T/C,"dose: 12.5 mg/kg/injection, schedule: Q04DX003 (ip), vehicle: saline",178 % of control
same,T/C,"dose: 12.5 mg/kg/injection, schedule: Q04DX003 (ip), vehicle: suspension in saline",164 % of control
same,T/C,"dose: 25.0 mg/kg/injection, schedule: Q04DX003 (ip), vehicle: saline",190 % of control and 194 % of control
same,T/C,"dose: 25.0 mg/kg/injection, schedule: Q04DX003 (ip), vehicle: suspension in saline",164 % of control
same,T/C,"dose: 50.0 mg/kg/injection, schedule: Q04DX003 (ip), vehicle: saline",255 % of control
same,T/C,"dose: 50.0 mg/kg/injection, schedule: Q04DX003 (ip), vehicle: suspension in saline",152 % of control
same,T/C,"dose: 100.0 mg/kg/injection, schedule: Q04DX003 (ip), vehicle: saline",216 % of control
same,T/C,"dose: 100.0 mg/kg/injection, schedule: Q04DX003 (ip), vehicle: suspension in saline",169 % of control
same,T/C,"dose: 200.0 mg/kg/injection, schedule: Q04DX003 (ip), vehicle: saline",104 % of control
same,T/C,"dose: 200.0 mg/kg/injection, schedule: Q04DX003 (ip), vehicle: suspension in saline",98 % of control
O=C(NNC1=NCCN1Cc1ccccc1)c1cccc(Cl)c1,T/C,[1],100 % of control
same,T/C,[2],100 % of control
same,T/C,[3],100 % of control
CCOC(=O)C1=C(C)/C(=C/c2[n-]c(Cl)c(C)c2C(=O)OCC)N=C1C.CCOC(=O)C1=C(C)/C(=C/c2[n-]c(Cl)c(C)c2C(=O)OCC)N=C1C.[Co+3],T/C,"dose: 50.0 mg/kg/injection, schedule: Q01DX005 (ip), vehicle: Klucel (hydroxypropylcellulose) (HPC)",88 % of control
same,T/C,"dose: 100.0 mg/kg/injection, schedule: Q01DX005 (ip), vehicle: Klucel (hydroxypropylcellulose) (HPC)",98 % of control
same,T/C,"dose: 200.0 mg/kg/injection, schedule: Q01DX005 (ip), vehicle: Klucel (hydroxypropylcellulose) (HPC)",108 % of control
